Assay results reported in article PMC4393269, “Carvacrol Codrugs: A New Approach in the Antimicrobial Plan” (PLoS ONE, 2015).
Read-outs that look alike come from different tables or passages of the source.

Experiments:
[1] = PAMPA-GI permeability; type: in vitro ADME; settings: for Papp at 16 h: 16 h of incubation (table title), 2% Tween 80, 10% MeOH, read-out: PAMPA-GI permeability P e
Method: Parallel Artificial Membrane Permeability Assay (PAMPA) was used to measure the permeability coefficient (P e) of codrug 4 through the artificial membrane to predict oral absorption. The carvacrol codrug 4 permeability was determined using PAMPA-GI protocols already developed. Briefly, donor and acceptor plates were assembled to form a “sandwich” and incubated at room temperature for 18 h.
P e can be calculated from the equation below: Pe={VD⋅VA/(VD+VA)⋅A⋅t⋅ln(1−[drug]acceptor/[drug]equilibrium)} (1) where P e is the effective permeability coefficient (cm × s^-1), V D is the volume of the donor compartment (0.15 cm^3) and V A is the volume of the acceptor compartment (0.30 cm^3), A is the effective filter area (0.28 cm^2), t is the incubation time for the assay (s), [drug] acceptor is the concentration of the compound in the acceptor compartment at assay completion, and [drug] equilibrium is the concentration of the compound at theoretical equilibrium.

[2] = tested on: pepsin; assay: Drug stability in simulated gastric fluid with pepsin; type: in vitro ADME; settings: for kobs: 37°C
Method: (§1) The HPLC system consisted of a Waters 600 HPLC pump (Waters Corporation, Milford, MA, USA), equipped with a Waters 2996 photodiode array detector. The column was a Kinetex RP-C8 column (3.0 x 150 mm, 5 μm). The mobile phase consisted of 0.1% TFA in acetonitrile/0.1% TFA in 95% H2O and 5% acetonitrile 50:50, under isocratic conditions at a flow rate of 1 mL/min. The UV detector was set at a length of 220 nm.
(§2) To assess enzymatic stability, hydrochloric buffer with pepsin (10 or 40 mg/mL) and phosphate buffer with pancreatin (10 or 40 mg/mL) were used. Buffer solution (250 μL) was preincubated at 37°C and 50 μL of drug stock solution (50 μM in ethanol and FASSIF 1:9) were added and shaken at 37°C and 650 rpm. Samples of 100 μL were withdrawn at various times and 100 µL of ice-cold acetonitrile containing 0.5 v/v% formic acid were added to stop enzymatic activity. Samples were vortexed and centrifuged at 2°C and 10000 rpm for 10 min. The drug content in the supernatant was analyzed by HPLC.

[3] = as above; type: in vitro ADME; settings: 37°C, read-out: t½ (converted)
Method: as §1, §2

[4] = tested on: pancreatin; assay: Drug stability in simulated intestinal fluid with pancreatin; type: in vitro ADME; settings: 37°C
Method: as §1, §2

[5] = as above; type: in vitro ADME; settings: 37°C, read-out: t½ (converted)
Method: as §1, §2

[6] = tested on: S. epidermidis ATCC 35984; assay: Antibiofilm assay on established biofilm (BIC/BEC); type: cell-based
Method: (§3) The efficacy on established biofilm was evaluated by determining Biofilm Inhibitory Concentration (BIC) and Biofilm Eradication Concentration (BEC) according to the method described by Johnson et al. with some modifications. Bacterial suspensions, grown in Tryptic soy broth supplemented with 0.5% (v/v) glucose at logarithmic phase, as well as C. albicans grown in RPMI 1640 plus 2% glucose, were incubated on flat-bottomed microtiter plates at a concentration of 5 x 10^5 CFU/mL. After 24 h of incubation at 37°C, the planktonic cells were gently removed and wells were washed with sterile phosphate-buffered saline solution (PBS) pH 7.3 and filled with carvacrol, carvacrol codrug 4, Ac-Cys(Allyl)-OH with dilutions ranging from the MIC values to a maximum concentration of 50 mg/mL. The OD600 was measured at time 0 and after incubation for 24 h at 37°C. The BIC values were determined as the lowest concentrations where no growth occurred in the supernatant fluid, confirmed by no increase in optical density compared with the initial reading. The BEC values were determined as the lowest concentrations at which no bacterial growth occurred on Tryptic soy agar for bacteria and on Sabouraud agar for C. albicans. Data were obtained from at least three independent experiments performed in duplicate.

[7] = tested on: S. aureus ATCC 29213; assay: Antibiofilm assay on established biofilm (BIC/BEC); type: cell-based; settings: S. aureus ATCC 29213 established biofilm
Method: as §3

[8] = tested on: P. aeruginosa ATCC 9027; assay: Antibiofilm assay on established biofilm (BIC/BEC); type: cell-based
Method: as §3

[9] = tested on: E. coli ATCC 8739; assay: Antibiofilm assay on established biofilm (BIC/BEC); type: cell-based
Method: as §3

[10] = tested on: C. albicans ATCC 10231; assay: Antibiofilm assay on established biofilm (BIC/BEC); type: cell-based
Method: as §3

[11] = SIF pH 7.4, pancreatin 10 mg/mL

SMILES: C=CCSC[C@H](NC(C)=O)C(=O)Oc1cc(C(C)C)ccc1C [codrug 4, N-Ac-Cys(Allyl)-CAR]
- Papp at 18 h ([1]; at each value of pH (5.0, 6.5, 7.4), after 18 h of incubation, read-out: PAMPA-GI permeability P e (bound)): > 1 ×10⁻⁶ cm/s
- Papp at 16 h ([1]; pH 5.0 in donor and acceptor): 8.6 ×10⁻⁶ cm/s
- Papp at 16 h ([1]; pH 6.5 in donor and acceptor): 17 ×10⁻⁶ cm/s
- Papp at 16 h ([1]; pH 7.4 in donor and acceptor): 2.34 ×10⁻⁶ cm/s
- kobs ([2]; SGF pH 1.3, pepsin 10 mg/mL): 0.009 (± 0.001) h^-1
- kobs ([2]; SGF pH 1.3, pepsin 40 mg/mL): 0.119 (± 0.003) h^-1
- stability at pH 1.3 respect to pH 7.4 ([2]; in the presence of pepsin and pancreatin (10 mg/mL)): 13 fold
- half-life at 8.3 µM ([3]; simulated gastric fluid with pepsin 10 mg/mL, pH 1.3, SGF pH 1.3, pepsin 10 mg/mL): > 74 h
- half-life at 8.3 µM ([3]; simulated gastric fluid with pepsin 40 mg/mL, pH 1.3, SGF pH 1.3, pepsin 40 mg/mL): 5.79 h
- kobs [4, 11]: 0.126 (± 0.003) h^-1
- t½ [4, 11]: 5.51 (± 0.13) h
- kobs ([4]; SIF pH 7.4, pancreatin 40 mg/mL): 0.83 (± 0.02) h^-1
- half-life at 8.3 µM ([5]; simulated intestinal fluid with pancreatin 10 mg/mL, pH 7.4, SIF pH 7.4, pancreatin 10 mg/mL): 5.5 h
- half-life at 8.3 µM ([5]; simulated intestinal fluid with pancreatin 40 mg/mL, pH 7.4, SIF pH 7.4, pancreatin 40 mg/mL): ~1 h
- BEC as multiple of MIC ([6]; S. epidermidis ATCC 35984): 8MIC
- BIC as multiple of MIC ([6]; S. epidermidis ATCC 35984): 2MIC
- BEC ([6]; S. epidermidis ATCC 35984 established biofilm): 20 mg/mL
- BIC ([6]; S. epidermidis ATCC 35984 established biofilm, 24 h): 5 mg/mL
- BEC [7]: 10 mg/mL
- BIC ([7]; 24 h): 5 mg/mL
- BEC as multiple of MIC ([8]; P. aeruginosa ATCC 9027): 2MIC
- BEC ([8]; P. aeruginosa ATCC 9027 established biofilm): 10 mg/mL
- BIC ([8]; P. aeruginosa ATCC 9027 established biofilm, 24 h): 5 mg/mL
- BEC as multiple of MIC ([9]; E. coli ATCC 8739): 16MIC
- BIC as multiple of MIC ([9]; E. coli ATCC 8739): 8MIC
- BEC ([9]; E. coli ATCC 8739 established biofilm): 40 mg/mL
- BIC ([9]; E. coli ATCC 8739 established biofilm, 24 h): 20 mg/mL
- BEC as multiple of MIC ([10]; C. albicans ATCC 10231): 8MIC
- BIC as multiple of MIC ([10]; C. albicans ATCC 10231): 8MIC
- BEC ([10]; C. albicans ATCC 10231 established biofilm): 10 mg/mL
- BIC ([10]; C. albicans ATCC 10231 established biofilm, 24 h): 10 mg/mL
